Entries after “also recorded” stand apart in the source; their conditions may differ.
System: outward potassium currents
Assay: inside-out whole-cell patch clamp recording of outward potassium currents
Assay type: cell-based
Method: These currents were elicited by a test voltage of+40 mV preceded by a 500 ms long prepulse to−110 mV from a holding potential of−70 mV. […] Current traces were obtained in 5 minute time intervals.
FIG. 14 illustrates a graph showing outward potassium currents with test compounds according to an embodiment of the invention. […] Each test increment followed a 0.5 second long hyperpolarizing prepulse to−110 mV, while keeping the membrane potential at−70 mV between pulses. In the first (left-most) plot, measurements of current were taken while the cell was bathed in a control solution. The cell was then placed in a 10 mM 4-AP bath solution, and the measurements of the second (middle) plot were recorded. The chemical called 4-AP is a pharmacological blocker of these ion channels. The cell was then washed of the 4-AP solution, and the cell was again bathed in the control solution. Measurements were recorded as in the first and second plots, and the results are shown in the third (right-most) plot. For purposes of an inside-out whole cell patch clamp measurement, the control and 4-AP baths represented the intracellular region.
FIG. 15 illustrates a graph showing potassium current amplitude (I) behavior as a function of applied membrane voltages (V) according to an embodiment of the invention. […] Here, the black square points correspond to the left-most plot in FIG. 14, the black circles correspond to the center plot of FIG. 14 showing the reduced potassium current in the presence of 10 mM 4-AP bath solution, and the white circles correspond to measurements after the 4-AP was washed away in the right-most plot of FIG. 14.
This current is approximately 50% lower than in the left and right plots, which correspond to measurements in the control solution before and after drug action, respectively.

## Nc1ccncc1 [4-AP]
10 mM 4-AP bath solution representing the intracellular region, first cell, FIG. 14
  block of potassium current amplitude: about 50%
10 mM 4-AP bath solution, first cell, current amplitude versus membrane voltage, FIG. 15
  current across the membrane relative to current in control solution: less than 50%
First cell, after washing and return to control solution, FIG. 14/15
  reversibility of the effect with wash-out perfusion: fully (or at least substantially) reversible; also recorded: reversible process
Second cell, in the presence of 4-AP, FIG. 16
  current lower than in control solution before and after drug action: approximately 50%
Second cell, wash-out, FIG. 17
  current amplitude after washing compared with control substance: nearly equal

From patent US7465558B2, “Perfusion system and apparatus for automated multi-channel patch-clamp recordings utilizing inside-out whole-cell configuration” (Wyeth, priority 2004, dated 2008)
